Measured values from US4818759A, “Treatment of disease” (priority 1987, dated 1989).
Like-named read-outs stand apart in the source and are kept apart here.

Test system: polyarthritis
Test: Rat adjuvant arthritis (Freund's adjuvant polyarthritis), global arthritic joint score
Format: in vivo, rats
Details: po, 384 h, read-out: ED50 (dose that produced a 50% reduction of the average global arthritic joint score relative to a control group)

SMILES	ED50 (rats, in ground meal diet for 14 days from day of sensitization with Freund's adjuvant, evaluated on 16th day after sensitization)	ED50
COc1ccc(OC)c(Cc2cnc3nc(N)nc(N)c3c2C)c1 [2,4-diamino-5-methyl-6-(2,5-dimethoxybenzyl)pyrido[2,3-d]pyrimidine isethionate]	19 mg/kg	–
CC(=O)Oc1ccccc1C(=O)O [Aspirin]	–	102 mg/kg
